Reference: patent publication US11446287B2, “Compounds and methods for EP300 or CBP modulation and indications therefor” (Opna Immuno-Oncology SA, priority 2019, dated 2022)

biological target: T1, Recombinant human BRD4 containing dual bromodomains (BRD4-BD12 (1-477)) (Homo sapiens, UniProt O60885); test: BRD4 Alphascreen binding assay
T1 construct: Recombinant human BRD4 containing dual bromodomains (BRD4-BD12 (1-477)); made in house; host or cells: E. coli BL21-CodonPlus (DE3), modified pET vector
Method: BRD4 Alphascreen Binding Assay
Binding of compounds of Formula (I) with BRD4 was assessed using Alphascreen binding assay. The inhibition of the interaction between BRD4 and its acetylated target protein was measured quantitatively using recombinant BRD4 protein, an acetylated Histone 4 peptide, and AlphaScreen™ technology. In absence of inhibition of the BRD4 protein bound to AlphaScreen™ nickel chelate acceptor beads can interact with the acetylated Histone 4 peptide which was immobilized by the AlphaScreen™ Streptavidin coated beads. This interaction brings donor and acceptor beads in proximity. The close proximity allows the singlet oxygen produced by laser excitation of the donor beads to reach the acceptor beads and generate a luminescence signal. BRD4 inhibitors result in a decrease in the proximity signal through an inhibition of the BRD4—acetylated peptide interaction.
Recombinant human BRD4 containing dual bromodomains (BRD4-BD12 (1-477)) was prepared and purified as described in protein expression and purification session. The peptide was human Histone H41-21K5AcK8AcK12AcK16Ac-Biotin (Anaspec CA, USA).
Protocol for BRD4 assay: All components are prepared in buffer composed of 50 mM HEPES pH 7.5, 50 mM NaCl, 0.01% BSA, 0.01% Triton X-100, 2 mM DTT. Test compounds and DMSO vehicle are diluted 1:50 in buffer and a 4 μL volume was transferred to an Alphaplate. 5.5 μL of Bromodomain protein and 5.5 μL of peptide are added to wells containing 4 μL of various concentrations of test compounds of Formula (I) or DMSO vehicle in an Alphaplate (PerkinElmer GA, USA) and incubated for 1 hour at room temperature. 5 μL donor and acceptor bead mixture was then added with final concentrations of 7.5 μg/ml. 30 minutes after bead addition, Alpha signal was read on the Envision spectrometer (λEx 680 nm, λEm 520-620 nm). Final concentrations of bromodomain proteins and peptide are as shown below.
All data were normalized to the mean of 16 high and 16 low control wells on each plate. A four parameter curve fit of the following formula was then applied: Y=A+((B−A)/(1+((C/x)^D))) Where ‘A’ is the minimum, ‘B’ is the maximum, ‘C’ is the IC50 and ‘D’ is the Hill slope. Protein Expression and Purification
Recombinant human BRD4 containing dual bromodomains (BRD4-BD12 (1-477)) was expressed in E. coli cells (in a modified pET vector) with an N-terminal six-His tag and purified using a combination of both IMAC (Ni-affinity) and size exclusion chromatography steps.
Recombinant BRD4 was expressed using the E. coli strain BL21-CodonPlus (DE3) (Agilent Technologies CA, USA). Cells were grown in Terrific Broth (TB) media to an OD600 of 2.0 at 37° C. at which temperature was reduced to 18° C., protein was induced with 0.1 mM isopropyl-β-D-thiogalactopyranoside (“IPTG”) for 12-18 hours and harvested by centrifugation at 8000×g for 20 minutes. Cells were re-suspended in 40 mM Tris-HCl pH 8.0, 0.5 M NaCl, 25 mM Imidazole, 5% glycerol, 1/200 vol. Protease Inhibitor Cocktail Set III (Calbiochem), 5 mM beta-mercaptoethanol (“BME”), 0.5 mg/mL Lysozyme, and 0.5 mg/mL DNaseI, incubated on ice for 30 minutes and lysed with a cell disruptor (MicroFluidics MA, USA). The lysate was clarified by centrifugation at 20,000×g for 2 hours. The protein was captured with Ni-NTA resin (Life Technologies, USA). Contaminating proteins were washed off with 40 mM Tris-HCl pH 8.0, 0.5 M NaCl, 25 mM Imidazole, 5% glycerol, and 5 mM BME. Following 3× wash steps, protein was eluted step wise into wash buffer containing 50, 100, 150, 500 mM Imidazole. The protein was further purified using Gel Filtration column 16/60 Superdex 200 (GE Biosciences NJ, USA) in 10 mM HEPES pH 8.0, 150 mM NaCl, and 5 mM DTT. Glycerol was added to a final concentration of 12% and the protein was aliquoted and flash-frozen in liquid Nitrogen.

Structure (SMILES) | IC50
Cc1ccc(S(=O)(=O)n2cc(-c3ccc(C(=O)O)cc3)c3cc(-c4c(C)noc4C)cnc32)cc1 [P-0006, 4-(5-(3,5-dimethylisoxazol-4-yl)-1-tosyl-1H-pyrrolo[2,3-b]pyridin-3-yl)benzoic acid] | 8 to 1000 µM
Cc1noc(C)c1-c1cnc2c(c1)c(-c1ccc(C(=O)O)cc1)cn2C(c1ccccn1)C1CC1 (stereo not shown) [P-0007, 4-(1-(cyclopropyl(pyridin-2-yl)methyl)-5-(3,5-dimethylisoxazol-4-yl)-1H-pyrrolo[2,3-b]pyridin-3-yl)benzoic acid] | 8 to 1000 µM
Cc1noc(C)c1-c1cnc2c(c1)c(-c1ccc(C(=O)O)cc1)cn2C(c1ccccn1)C1CCC1 (stereo not shown) [P-0008, 4-(1-(cyclobutyl(pyridin-2-yl)methyl)-5-(3,5-dimethylisoxazol-4-yl)-1H-pyrrolo[2,3-b]pyridin-3-yl)benzoic acid] | 8 to 1000 µM
Cc1noc(C)c1-c1cnc2c(CC3CCC3)cn(-c3ccc(C(=O)O)cn3)c2c1 [P-0009, 6-(3-(cyclobutylmethyl)-6-(3,5-dimethylisoxazol-4-yl)-1H-pyrrolo[3,2-b]pyridin-1-yl)nicotinic acid] | 8 to 1000 µM
Cc1noc(C)c1-c1cnc2c(CC3CC3)cn(-c3ccc(C(=O)O)cn3)c2c1 [P-0010, 6-(3-(cyclopropylmethyl)-6-(3,5-dimethylisoxazol-4-yl)-1H-pyrrolo[3,2-b]pyridin-1-yl)nicotinic acid] | 8 to 1000 µM
Cc1noc(C)c1-c1cnc2c(Cc3ccccn3)cn(-c3ccc(C(=O)O)cn3)c2c1 [P-0011, 6-(6-(3,5-dimethylisoxazol-4-yl)-3-(pyridin-2-ylmethyl)-1H-pyrrolo[3,2-b]pyridin-1-yl)nicotinic acid] | 8 to 1000 µM
Cc1noc(C)c1-c1cnc2c(c1)c(-c1ccc(C(=O)O)cc1)cn2C(c1ccccn1)c1ccccn1 [P-0012, 4-(1-(di(pyridin-2-yl)methyl)-5-(3,5-dimethylisoxazol-4-yl)-1H-pyrrolo[2,3-b]pyridin-3-yl)benzoic acid] | 8 to 1000 µM
Cc1noc(C)c1-c1cnc2c(c1)c(-c1ccc(C(=O)O)cc1F)cn2[C@@H](C)c1ccccn1 [P-0097, (S)-4-(5-(3,5-dimethylisoxazol-4-yl)-1-(1-(pyridin-2-yl)ethyl)-1H-pyrrolo[2,3-b]pyridin-3-yl)-3-fluorobenzoic acid] | 8 to 1000 µM
COc1ccc(C(=O)O)cc1-n1cc(CC2CCC2)c2ncc(-c3c(C)noc3C)cc21 [P-0098, 3-(3-(cyclobutylmethyl)-6-(3,5-dimethylisoxazol-4-yl)-1H-pyrrolo[3,2-b]pyridin-1-yl)-4-methoxybenzoic acid] | 1 to 8 µM
Cc1noc(C)c1-c1cnc2c(C(=O)c3cccc(OC(F)F)c3)cn(-c3ccnc(C(=O)O)c3)c2c1 [P-0099, 4-(3-(3-(difluoromethoxy)benzoyl)-6-(3,5-dimethylisoxazol-4-yl)-1H-pyrrolo[3,2-b]pyridin-1-yl)picolinic acid] | 1 to 8 µM
Cc1noc(C)c1-c1cnc2c(Cc3cccc(OC(F)F)c3)cn(-c3ccnc(C(=O)O)c3)c2c1 [P-0100, 4-(3-(3-(difluoromethoxy)benzyl)-6-(3,5-dimethylisoxazol-4-yl)-1H-pyrrolo[3,2-b]pyridin-1-yl)picolinic acid] | 1 to 8 µM
Cc1noc(C)c1-c1cnc2c(c1)c(-c1cccc(C(=O)O)c1)cn2CC1CC(F)(F)C1 [P-0101, 3-(1-((3,3-difluorocyclobutyl)methyl)-5-(3,5-dimethylisoxazol-4-yl)-1H-pyrrolo[2,3-b]pyridin-3-yl)benzoic acid] | 8 to 1000 µM
Cc1noc(C)c1-c1cnc2c(c1)c(-c1cccc(C(=O)O)c1)cn2CC1(C)COC1 [P-0102, 3-(5-(3,5-dimethylisoxazol-4-yl)-1-((3-methyloxetan-3-yl)methyl)-1H-pyrrolo[2,3-b]pyridin-3-yl)benzoic acid] | 8 to 1000 µM
COc1cc(C(=O)O)cc(OC)c1-c1cn([C@@H](C)c2ccccn2)c2ncc(-c3c(C)noc3C)cc12 [P-0103, (S)-4-(5-(3,5-dimethylisoxazol-4-yl)-1-(1-(pyridin-2-yl)ethyl)-1H-pyrrolo[2,3-b]pyridin-3-yl)-3,5-dimethoxybenzoic acid] | 8 to 1000 µM
Cc1noc(C)c1-c1cnc2c(CC3CCC3)cn(-c3ccc(C#N)c(C(=O)O)c3)c2c1 [P-0104, 2-cyano-5-(3-(cyclobutylmethyl)-6-(3,5-dimethylisoxazol-4-yl)-1H-pyrrolo[3,2-b]pyridin-1-yl)benzoic acid] | 8 to 1000 µM
Cc1noc(C)c1-c1cnc2c(CC3CCC3)cn(-c3ccc(C(=O)O)c(C#N)c3)c2c1 [P-0105, 2-cyano-4-(3-(cyclobutylmethyl)-6-(3,5-dimethylisoxazol-4-yl)-1H-pyrrolo[3,2-b]pyridin-1-yl)benzoic acid] | 8 to 1000 µM
Cc1noc(C)c1-c1cnc2c(c1)c(-c1cncc(C(=O)O)n1)cn2[C@@H](C)c1ccccn1 [P-0106, (S)-6-(5-(3,5-dimethylisoxazol-4-yl)-1-(1-(pyridin-2-yl)ethyl)-1H-pyrrolo[2,3-b]pyridin-3-yl)pyrazine-2-carboxylic acid] | 8 to 1000 µM
Cc1noc(C)c1-c1cnc2c(c1)c(-c1nccc(C(=O)O)n1)cn2[C@@H](C)c1ccccn1 [P-0107, (S)-2-(5-(3,5-dimethylisoxazol-4-yl)-1-(1-(pyridin-2-yl)ethyl)-1H-pyrrolo[2,3-b]pyridin-3-yl)pyrimidine-4-carboxylic acid] | 8 to 1000 µM
CCOc1cc(C(=O)O)cc(F)c1-n1cc(CC2CCC2)c2ncc(-c3c(C)noc3C)cc21 [P-0108, 4-(3-(cyclobutylmethyl)-6-(3,5-dimethylisoxazol-4-yl)-1H-pyrrolo[3,2-b]pyridin-1-yl)-3-ethoxy-5-fluorobenzoic acid] | 1 to 8 µM
CCOc1cc(C(=O)O)cc(OCC)c1-n1cc(CC2CCC2)c2ncc(-c3c(C)noc3C)cc21 [P-0109, 4-(3-(cyclobutylmethyl)-6-(3,5-dimethylisoxazol-4-yl)-1H-pyrrolo[3,2-b]pyridin-1-yl)-3,5-diethoxybenzoic acid] | 1 to 8 µM
Cc1noc(C)c1-c1cnc2c(CC3CCC3)cn(-c3ccc(C(=O)O)c4ccoc34)c2c1 [P-0110, 7-(3-(cyclobutylmethyl)-6-(3,5-dimethylisoxazol-4-yl)-1H-pyrrolo[3,2-b]pyridin-1-yl)benzofuran-4-carboxylic acid] | 1 to 8 µM
Cc1noc(C)c1-c1cnc2c(CC3CCC3)cn(-c3c(OC(C)C)cc(C(=O)O)cc3OC(C)C)c2c1 [P-0111, 4-(3-(cyclobutylmethyl)-6-(3,5-dimethylisoxazol-4-yl)-1H-pyrrolo[3,2-b]pyridin-1-yl)-3,5-diisopropoxybenzoic acid] | 8 to 1000 µM
Cc1noc(C)c1-c1cnc2c(c1)c(-c1ccc(C(=O)O)cc1OC(C)C)cn2[C@@H](C)c1ccccn1 [P-0112, (S)-4-(5-(3,5-dimethylisoxazol-4-yl)-1-(1-(pyridin-2-yl)ethyl)-1H-pyrrolo[2,3-b]pyridin-3-yl)-3-isopropoxybenzoic acid] | 8 to 1000 µM
CCCOc1cc(C(=O)O)ccc1-c1cn([C@@H](C)c2ccccn2)c2ncc(-c3c(C)noc3C)cc12 [P-0113, (S)-4-(5-(3,5-dimethylisoxazol-4-yl)-1-(1-(pyridin-2-yl)ethyl)-1H-pyrrolo[2,3-b]pyridin-3-yl)-3-propoxybenzoic acid] | 8 to 1000 µM
CCOc1cc(C(=O)O)ccc1-c1cn([C@@H](C)c2ccccn2)c2ncc(-c3c(C)noc3C)cc12 [P-0114, (S)-4-(5-(3,5-dimethylisoxazol-4-yl)-1-(1-(pyridin-2-yl)ethyl)-1H-pyrrolo[2,3-b]pyridin-3-yl)-3-ethoxybenzoic acid] | 8 to 1000 µM
